Measured values from the supplement of paper PMC10307832.

Legend:
Experiment in all cases: relative viability (nuclei count vs DMSO), 5 days (fraction); higher = more cells survive
[1] = compound: CC1=CC=C(C=C1)C(=O)CN2C3=C(CCCC3)SC2=N [Pifithrin_alpha] + CS(=O)(=O)N1CCN(Cc2cc3nc(-c4cccc5[nH]ncc45)nc(N4CCOCC4)c3s2)CC1 [Pictilisib] (partner 1 µM)
Summary of the method: (§1)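 A single step with final 0.05% Triton X-100, 1% formaldehyde and 1 ug/ml Hoechst fixed the cells and stained nuclei 5 days after treatment. Lung cancer cell lines in 1536-well plates had been treated by pin tool the day after seeding with one drug alone or a fixed anchor-drug dose plus five library-drug doses (not always all listed) in √10 steps, and nuclei were counted on 4× images. Relative viability is the ratio of nuclei in treated wells to nuclei in vehicle wells, taken as the median of duplicate plates.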

Axitinib + Lapatinib = compound: CNC(=O)c1ccccc1Sc1ccc2c(/C=C/c3ccccn3)n[nH]c2c1 [Axitinib] + CS(=O)(=O)CCNCc1ccc(-c2ccc3ncnc(Nc4ccc(OCc5cccc(F)c5)c(Cl)c4)c3c2)o1 [Lapatinib] (partner 2 µM)
Summary of the method: as §1

Bemcentinib + Navitoclax = compound: Nc1nc(Nc2ccc3c(c2)CC[C@@H](N2CCCC2)CC3)nn1-c1cc2c(nn1)-c1ccccc1CCC2 [Bemcentinib] + CC1(C)CCC(c2ccc(Cl)cc2)=C(CN2CCN(c3ccc(C(=O)NS(=O)(=O)c4ccc(N[C@H](CCN5CCOCC5)CSc5ccccc5)c(S(=O)(=O)C(F)(F)F)c4)cc3)CC2)C1 [Navitoclax] (partner 0.5 µM)
Summary of the method: as §1

Bemcentinib + Linsitinib = compound: Nc1nc(Nc2ccc3c(c2)CC[C@@H](N2CCCC2)CC3)nn1-c1cc2c(nn1)-c1ccccc1CCC2 [Bemcentinib] + C[C@]1(O)C[C@@H](c2nc(-c3ccc4ccc(-c5ccccc5)nc4c3)c3c(N)nccn32)C1 [Linsitinib] (partner 1 µM)
Summary of the method: as §1

Cell Line | relative viability ([1]; first compound 1 µM) | relative viability ([1]; first compound 3.162 µM) | relative viability ([1]; first compound 10 µM) | relative viability ([1]; first compound 31.62 µM) | relative viability ([1]; first compound 100 µM) | relative viability (Axitinib + Lapatinib; first compound 0.005 µM) | relative viability (Axitinib + Lapatinib; first compound 0.01581 µM) | relative viability (Axitinib + Lapatinib; first compound 0.05 µM) | relative viability (Axitinib + Lapatinib; first compound 0.1581 µM) | relative viability (Axitinib + Lapatinib; first compound 0.5 µM) | relative viability (Bemcentinib + Navitoclax; first compound 0.04 µM) | relative viability (Bemcentinib + Navitoclax; first compound 0.1265 µM) | relative viability (Bemcentinib + Navitoclax; first compound 0.4 µM) | relative viability (Bemcentinib + Navitoclax; first compound 1.265 µM) | relative viability (Bemcentinib + Navitoclax; first compound 4 µM) | relative viability (Bemcentinib + Linsitinib; first compound 0.04 µM) | relative viability (Bemcentinib + Linsitinib; first compound 0.1265 µM) | relative viability (Bemcentinib + Linsitinib; first compound 0.4 µM) | relative viability (Bemcentinib + Linsitinib; first compound 1.265 µM) | relative viability (Bemcentinib + Linsitinib; first compound 4 µM)
NCI-H1734 | 0.494 | 0.491 | 0.481 | 0.381 | 0.434 | 1.03 | 1.07 | 1.15 | 1.02 | 0.954 | 0.872 | 0.986 | 0.94 | 0.886 | 0.875 | 0.856 | 0.913 | 0.952 | 1.01 | 0.836
NCI-H1993 | – | 0.747 | 0.8 | 0.673 | 0.846 | 0.952 | 0.971 | 0.841 | 0.735 | 0.731 | 0.897 | 0.911 | 1.02 | 0.994 | 1.08 | 0.699 | 0.735 | 0.776 | 0.773 | 0.804
NCI-H2085 | 0.487 | 0.498 | 0.444 | 0.43 | 0.404 | 0.803 | 0.778 | 0.798 | 0.755 | 0.684 | 1.07 | 1.07 | 1.1 | 1.18 | 1.1 | 0.842 | 0.977 | 0.837 | 0.9 | 0.855
EBC-1 | 0.261 | 0.224 | 0.237 | 0.198 | 0.214 | 0.218 | 0.218 | 0.172 | 0.239 | 0.221 | 0.377 | 0.404 | 0.431 | 0.394 | 0.422 | 0.926 | 0.928 | 0.907 | 1.19 | 1.18
COR-L23 | 0.736 | 0.75 | 0.731 | – | 0.695 | 0.975 | 0.963 | 1.12 | 0.808 | 1.12 | 1.14 | 1.11 | 1.1 | 1.03 | 1.03 | 1.04 | 0.935 | 1.2 | 1.17 | 0.844
NCI-H1793 | 0.251 | 0.388 | 0.436 | 0.341 | 0.323 | 0.768 | 0.609 | 1.17 | 0.571 | 0.526 | 0.438 | 0.44 | 0.425 | 0.545 | 0.427 | 0.662 | 1.09 | 0.81 | 1.07 | 0.992
A549 | 0.703 | 0.586 | 0.435 | 0.434 | 0.342 | 0.896 | 1 | 0.997 | 0.902 | 1.01 | 1.2 | 1.27 | 1.32 | 1.29 | 1.2 | 0.655 | 0.657 | 0.659 | 0.677 | 0.622
EPLC-272H | – | 0.319 | 0.35 | 0.255 | 0.248 | 0.97 | 0.889 | 0.906 | 0.975 | 0.94 | – | 1.04 | 1.19 | 1.33 | 1.43 | – | 1.08 | 1.28 | 1.16 | 1.19
